The text below walks through data of patent publication US7109380B2, “Cyclopentenedione antifungal compounds and methods for their use” (The University of Mississippi, priority 2004, dated 2006).

Data set [1] deals with wheat leaf rust caused by Puccinia recondite. The following applies: background; cited from earlier work.
Data set [2] deals with M. intracellulare ATCC 23068. In words: In vitro antibacterial assay (modified method of Franzblau, Alamar Blue). It counts as cell-based. The following applies: Mycobacterium intracellulare, ATCC23068, M. intracellulare ATCC 23068. In general terms: Alamar Blue is a resazurin reagent that responds to reducing activity.
In another data set the test system is C. krusei ATCC 6258. Kind of data set: In vitro antimicrobial assay (modified NCCLS), Candida media pH 4.5. Type of data set: cell-based, Candida krusei. The following applies: C. krusei ATCC 6258, pH 4.5.
The subject of data set [3] is Cryptococcus neoformans ATCC 90113. In words: In vitro antifungal susceptibility testing (modified NCCLS method). It counts as cell-based.
A further data set deals with C. albicans ATCC 90028. In words: In vitro antimicrobial assay (modified NCCLS), Candida media pH 4.5. It counts as cell-based, Candida albicans. The note with it: C. albicans ATCC 90028, pH 4.5, Table 3.
Data set [4] deals with Candida albicans ATCC 90028. In words: In vitro antifungal susceptibility testing (modified NCCLS method), media pH 7.3. Type of data set: cell-based. The note with it: Candida albicans ATCC 90028, Table 1.
The test system of the next data set is C. glabrata ATCC 90030. In words: In vitro antimicrobial assay (modified NCCLS), Candida media pH 4.5. It counts as cell-based, Candida glabrata. The note with it: C. glabrata ATCC 90030, pH 4.5.
In data set [5] the test system is several cancer cell lines. The note with it: background; cited from earlier work.
The target of another data set is human chymase (Homo sapiens, UniProt P23946). The note with it: background; cited from earlier work.
[6] abbreviates: Cr. neoformans ATCC 90113, Table 3.
[7] abbreviates: Cryptococcus neoformans ATCC 90113, Table 1.

Converted amounts (≈) assume the structure as drawn. “And” between values parts separate entries of the source, which are not always exact repeats. Equal values may be shown once. Read-outs that look alike come from different tables or passages of the source.

human chymase, sequence (P23946 22-247): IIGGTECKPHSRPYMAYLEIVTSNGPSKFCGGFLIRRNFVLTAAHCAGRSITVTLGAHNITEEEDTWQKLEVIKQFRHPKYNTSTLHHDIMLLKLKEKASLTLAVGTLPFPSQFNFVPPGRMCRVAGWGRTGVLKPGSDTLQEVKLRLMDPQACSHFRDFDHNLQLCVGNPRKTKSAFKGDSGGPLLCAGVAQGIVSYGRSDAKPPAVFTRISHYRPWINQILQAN

With `COC1=CC(=O)/C(=C(\C=C\c2ccccc2)OC)C1=O` [methyllucidone], the “Antifungal activity against wheat leaf rust (in words)” value in data set [1] is listed as “moderately antifungal activity”.

As to `CC1=CC(=O)/C(=C(O)/C=C/c2ccccc2)C1=O` [Compound 2, coruscanone B], the melting point is 125 °C and 124 °C. This compound registered an MIC in data set [2] of 20 µg/mL (≈ 83.2 µM). Besides, the IC50 in [2] (read-out: IC50 (50% inhibitory concentration)) came to 10 µg/mL (≈ 41.6 µM). Further, the IC50 in the data set on C. krusei ATCC 6258 (Pichia kudriavzevii, ATCC6258, read-out: IC50 (50% inhibitory concentration)) is 4.5 µg/mL (≈ 18.7 µM). Also, the IC50 in data set [3] (Cryptococcus neoformans, ATCC90113, Cr. neoformans ATCC 90113, Table 3, read-out: IC50 (50% inhibitory concentration)) came out at 20 µg/mL (≈ 83.2 µM). Also, in the data set with C. albicans ATCC 90028 (Candida albicans, ATCC90028, read-out: IC50 (50% inhibitory concentration)), the IC50 stood at 1 µg/mL (≈ 4.16 µM). Moreover, the MFC in the data set on C. albicans ATCC 90028 (Candida albicans, ATCC90028, read-out: MFC) is 5 µg/mL (≈ 20.8 µM). Also, the MIC in the data set with C. albicans ATCC 90028 (Candida albicans, ATCC90028, read-out: MIC) was determined as 2.5 µg/mL (≈ 10.4 µM). Moreover, in data set [4] (ATCC90028, read-out: MIC (Minimum Inhibitory Concentration)), the MIC amounted to 50 µg/mL (≈ 208 µM). For the same compound, the IC50 in the data set on C. glabrata ATCC 90030 (Nakaseomyces glabratus, ATCC90030, read-out: IC50 (50% inhibitory concentration)) worked out at 1.5 µg/mL (≈ 6.24 µM). In addition, in the data set with C. glabrata ATCC 90030 (Nakaseomyces glabratus, ATCC90030, read-out: MFC), the MFC is 5 µg/mL (≈ 20.8 µM). Moreover, in the data set with C. glabrata ATCC 90030 (Nakaseomyces glabratus, ATCC90030, read-out: MIC), the MIC is 2.5 µg/mL (≈ 10.4 µM).

For `COC(/C=C/c1ccccc1)=C1C(=O)C(OC)=C(OC)C1=O` [methyllinderone], the “Cytotoxicity (in words)” value in data set [5] is given as “cytotoxic”. At human chymase, the “Inhibition of human chymase (in words)” value is recorded as “moderate inhibitor”.

Consider `C[C@@H]1[C@H](O)[C@@H](C)/C=C/C=C/C=C/C=C/C=C/C=C/C=C/[C@H](O[C@@H]2O[C@H](C)[C@@H](O)[C@H](N)[C@@H]2O)C[C@@H]2O[C@](O)(C[C@@H](O)C[C@@H](O)[C@H](O)CC[C@@H](O)C[C@@H](O)CC(=O)O[C@H]1C)C[C@H](O)[C@H]2C(=O)O` [Amphotericin B, reference compound], for which the “IC50 (50% inhibitory concentration)” value with C. krusei ATCC 6258 stood at 0.45 µg/mL (≈ 0.487 µM); in data set [3] (setting [6]), 0.50 µg/mL (≈ 0.541 µM); with C. albicans ATCC 90028, 0.45 µg/mL (≈ 0.487 µM); in the data set with C. glabrata ATCC 90030 it was 0.20 µg/mL (≈ 0.216 µM). Besides, the MFC (with C. krusei ATCC 6258; in [3] (setting [6]); in the data set with C. albicans ATCC 90028; in the data set on C. glabrata ATCC 90030) was 1.25 µg/mL (≈ 1.35 µM) throughout. Also, the MIC (against C. krusei ATCC 6258; in data set [3] (setting [6]); in the data set on C. albicans ATCC 90028; against C. glabrata ATCC 90030) was 1.25 µg/mL (≈ 1.35 µM) throughout. Further, the MFC (Minimum Fungicidal Concentration) in data set [3] (setting [7]) was found to be 2.5 µg/mL (≈ 2.71 µM); in [4] it was 5.00 µg/mL (≈ 5.41 µM). For the same compound, the results for the MIC (Minimum Inhibitory Concentration) in data set [3] (setting [7]) and in [4] were 2.5 µg/mL (≈ 2.71 µM) and 2.50 µg/mL (≈ 2.71 µM), respectively.

The melting point is the temperature, or range, at which the solid turns liquid. One may read the MFC as the smallest concentration meeting the test's criterion for killing the fungus.
